Data taken from ChEMBL document CHEMBL5678818, “Discovery of potent SOS1 inhibitors that block RAS activation via disruption of the RAS-SOS1 interaction” (Proc Natl Acad Sci U S A, 2019).

Assays:
[1] = molecular target: Cyclin-dependent kinase-like 1 (Homo sapiens) (UniProt Q00532); assay: Inhibition of CDKL1 (unknown origin) assessed as residual activity at 1000 nM by KINOMEscan analysis relative to control
[2] = molecular target: Serine/threonine-protein kinase pim-2 (Homo sapiens) (UniProt Q9P1W9); assay: Inhibition of PIM2 (unknown origin) assessed as residual activity at 1000 nM by KINOMEscan analysis relative to control
[3] = molecular target: T1, Mitogen-activated protein kinase kinase kinase 15 (Homo sapiens) (UniProt Q6ZN16); assay: Inhibition of MAP3K15 (unknown origin) assessed as residual activity at 1000 nM by KINOMEscan analysis relative to control
T1 sequence (whole entry): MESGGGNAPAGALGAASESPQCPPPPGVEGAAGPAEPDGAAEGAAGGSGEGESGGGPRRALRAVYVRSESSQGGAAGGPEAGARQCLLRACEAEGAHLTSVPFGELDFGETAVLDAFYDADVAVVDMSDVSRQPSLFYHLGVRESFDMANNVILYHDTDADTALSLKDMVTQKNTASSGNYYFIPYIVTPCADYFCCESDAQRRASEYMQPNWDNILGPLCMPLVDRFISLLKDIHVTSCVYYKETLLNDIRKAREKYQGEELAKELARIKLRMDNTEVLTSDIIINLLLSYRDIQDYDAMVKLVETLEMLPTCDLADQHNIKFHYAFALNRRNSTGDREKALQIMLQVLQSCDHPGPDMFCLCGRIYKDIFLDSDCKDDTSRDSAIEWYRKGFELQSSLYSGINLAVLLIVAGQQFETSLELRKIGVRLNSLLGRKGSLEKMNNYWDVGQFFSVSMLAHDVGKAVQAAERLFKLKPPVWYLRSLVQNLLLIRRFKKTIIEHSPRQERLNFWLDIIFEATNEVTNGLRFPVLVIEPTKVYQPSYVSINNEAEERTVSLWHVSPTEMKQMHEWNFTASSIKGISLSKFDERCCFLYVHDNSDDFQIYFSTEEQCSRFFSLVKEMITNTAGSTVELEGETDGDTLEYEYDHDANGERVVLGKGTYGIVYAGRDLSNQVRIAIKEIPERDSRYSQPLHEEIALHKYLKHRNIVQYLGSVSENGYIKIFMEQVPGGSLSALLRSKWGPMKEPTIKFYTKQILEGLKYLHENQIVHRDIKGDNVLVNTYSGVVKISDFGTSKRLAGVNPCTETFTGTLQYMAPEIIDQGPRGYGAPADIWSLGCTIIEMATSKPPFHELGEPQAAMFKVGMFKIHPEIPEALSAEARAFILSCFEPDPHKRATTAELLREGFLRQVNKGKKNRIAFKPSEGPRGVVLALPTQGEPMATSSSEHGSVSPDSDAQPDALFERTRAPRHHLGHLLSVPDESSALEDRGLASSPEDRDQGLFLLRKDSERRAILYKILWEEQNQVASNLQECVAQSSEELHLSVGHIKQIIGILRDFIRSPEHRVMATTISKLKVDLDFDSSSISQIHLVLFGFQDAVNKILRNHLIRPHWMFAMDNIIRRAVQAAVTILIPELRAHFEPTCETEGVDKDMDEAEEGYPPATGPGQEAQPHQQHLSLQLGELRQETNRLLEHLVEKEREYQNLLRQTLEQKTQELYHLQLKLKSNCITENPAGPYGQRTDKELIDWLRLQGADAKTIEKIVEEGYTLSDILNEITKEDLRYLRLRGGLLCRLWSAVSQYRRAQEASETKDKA

[4] = molecular target: Protein kinase C eta type (Homo sapiens) (UniProt P24723); assay: Inhibition of PRKCH (unknown origin) assessed as residual activity at 1000 nM by KINOMEscan analysis relative to control
[5] = molecular target: Mitogen-activated protein kinase kinase kinase 20 (Homo sapiens) (UniProt Q9NYL2); assay: Inhibition of ZAK (unknown origin) assessed as residual activity at 1000 nM by KINOMEscan analysis relative to control
[6] = molecular target: Activin receptor type-2A (Homo sapiens) (UniProt P27037); assay: Inhibition of ACVR2A (unknown origin) assessed as residual activity at 1000 nM by KINOMEscan analysis relative to control
[7] = molecular target: Phosphatidylinositol 4,5-bisphosphate 3-kinase catalytic subunit gamma isoform (Homo sapiens) (UniProt P48736); assay: Inhibition of PIK3CG (unknown origin) assessed as residual activity at 1000 nM by KINOMEscan analysis relative to control
[8] = molecular target: T2, Inhibitor of nuclear factor kappa-B kinase subunit epsilon (Homo sapiens) (UniProt Q14164); assay: Inhibition of IKK-epsilon (unknown origin) assessed as residual activity at 1000 nM by KINOMEscan analysis relative to control
T2 sequence (whole entry): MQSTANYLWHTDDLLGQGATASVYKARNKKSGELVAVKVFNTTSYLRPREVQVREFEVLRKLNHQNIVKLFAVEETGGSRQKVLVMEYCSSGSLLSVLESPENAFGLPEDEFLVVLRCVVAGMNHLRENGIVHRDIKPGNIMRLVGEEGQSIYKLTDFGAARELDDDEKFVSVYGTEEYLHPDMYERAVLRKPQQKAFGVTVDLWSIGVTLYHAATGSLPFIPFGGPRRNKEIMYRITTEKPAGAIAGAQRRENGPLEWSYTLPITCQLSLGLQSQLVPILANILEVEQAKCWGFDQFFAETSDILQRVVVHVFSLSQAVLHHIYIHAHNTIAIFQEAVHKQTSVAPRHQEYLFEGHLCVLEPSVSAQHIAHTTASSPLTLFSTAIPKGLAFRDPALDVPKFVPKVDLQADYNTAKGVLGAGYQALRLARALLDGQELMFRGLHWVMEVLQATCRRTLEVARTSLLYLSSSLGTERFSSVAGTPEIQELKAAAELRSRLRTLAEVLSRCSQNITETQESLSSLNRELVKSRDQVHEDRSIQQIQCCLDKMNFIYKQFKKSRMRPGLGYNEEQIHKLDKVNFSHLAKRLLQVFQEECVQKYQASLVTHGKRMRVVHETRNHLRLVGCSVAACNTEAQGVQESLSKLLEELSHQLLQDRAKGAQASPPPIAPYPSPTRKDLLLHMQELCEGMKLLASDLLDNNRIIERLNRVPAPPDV

[9] = molecular target: Serine/threonine-protein kinase MRCK gamma (Homo sapiens) (UniProt Q6DT37); assay: Inhibition of DMPK2 (unknown origin) assessed as residual activity at 1000 nM by KINOMEscan analysis relative to control
[10] = molecular target: Dual specificity tyrosine-phosphorylation-regulated kinase 1A (Homo sapiens) (UniProt Q13627); assay: Inhibition of DYRK1A (unknown origin) assessed as residual activity at 1000 nM by KINOMEscan analysis relative to control
[11] = molecular target: Tyrosine-protein kinase Blk (Homo sapiens) (UniProt P51451); assay: Inhibition of BLK (unknown origin) assessed as residual activity at 1000 nM by KINOMEscan analysis relative to control
Chain of Tyrosine-protein kinase Blk (Homo sapiens) (P51451 2-505 limits assumed): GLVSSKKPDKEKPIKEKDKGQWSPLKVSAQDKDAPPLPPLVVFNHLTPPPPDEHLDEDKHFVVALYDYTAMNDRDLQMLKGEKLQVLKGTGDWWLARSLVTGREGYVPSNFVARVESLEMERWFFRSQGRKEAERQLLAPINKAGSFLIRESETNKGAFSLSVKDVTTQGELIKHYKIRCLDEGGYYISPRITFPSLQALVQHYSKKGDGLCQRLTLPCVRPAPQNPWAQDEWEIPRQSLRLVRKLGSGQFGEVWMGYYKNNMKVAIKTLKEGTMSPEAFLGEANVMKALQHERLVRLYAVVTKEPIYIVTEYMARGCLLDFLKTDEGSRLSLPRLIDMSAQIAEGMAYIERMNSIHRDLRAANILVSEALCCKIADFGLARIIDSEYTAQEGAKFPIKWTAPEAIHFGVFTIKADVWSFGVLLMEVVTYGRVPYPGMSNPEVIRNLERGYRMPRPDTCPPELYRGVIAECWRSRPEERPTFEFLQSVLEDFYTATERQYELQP

Chain of Protein kinase C eta type (Homo sapiens) (P24723 whole entry): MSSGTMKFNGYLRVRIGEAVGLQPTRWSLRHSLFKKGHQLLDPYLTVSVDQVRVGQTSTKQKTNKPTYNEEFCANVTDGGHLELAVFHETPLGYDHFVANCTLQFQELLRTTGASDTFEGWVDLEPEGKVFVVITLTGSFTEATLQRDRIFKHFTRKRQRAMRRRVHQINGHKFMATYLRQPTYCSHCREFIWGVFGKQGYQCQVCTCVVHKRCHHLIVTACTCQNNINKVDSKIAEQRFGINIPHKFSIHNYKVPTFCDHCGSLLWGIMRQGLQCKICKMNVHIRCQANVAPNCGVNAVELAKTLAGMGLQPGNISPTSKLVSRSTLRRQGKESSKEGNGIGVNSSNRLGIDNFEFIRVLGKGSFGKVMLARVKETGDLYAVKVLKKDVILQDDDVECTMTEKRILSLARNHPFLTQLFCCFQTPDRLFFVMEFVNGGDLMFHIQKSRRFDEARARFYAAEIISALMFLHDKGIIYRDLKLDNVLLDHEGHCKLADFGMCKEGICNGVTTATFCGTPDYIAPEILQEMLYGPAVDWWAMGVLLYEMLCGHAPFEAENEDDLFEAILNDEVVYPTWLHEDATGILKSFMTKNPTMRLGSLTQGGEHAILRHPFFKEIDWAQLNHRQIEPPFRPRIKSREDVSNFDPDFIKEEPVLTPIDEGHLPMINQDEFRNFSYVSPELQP
Chain of Activin receptor type-2A (Homo sapiens) (P27037 whole entry, canonical isoform): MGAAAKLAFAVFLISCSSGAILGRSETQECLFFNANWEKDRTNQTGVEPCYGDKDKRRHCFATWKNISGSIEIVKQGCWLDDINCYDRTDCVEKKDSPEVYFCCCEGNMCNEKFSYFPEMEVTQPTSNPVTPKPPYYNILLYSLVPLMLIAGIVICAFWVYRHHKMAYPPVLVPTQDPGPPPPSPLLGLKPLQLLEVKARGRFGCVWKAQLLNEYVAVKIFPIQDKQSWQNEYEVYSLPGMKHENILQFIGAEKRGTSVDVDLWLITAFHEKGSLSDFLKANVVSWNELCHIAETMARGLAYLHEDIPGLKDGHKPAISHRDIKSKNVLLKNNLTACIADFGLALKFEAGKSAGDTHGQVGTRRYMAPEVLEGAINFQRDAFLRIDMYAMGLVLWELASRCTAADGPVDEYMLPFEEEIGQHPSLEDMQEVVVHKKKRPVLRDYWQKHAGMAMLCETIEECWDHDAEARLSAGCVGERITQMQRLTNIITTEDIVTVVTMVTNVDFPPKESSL
Chain of Cyclin-dependent kinase-like 1 (Homo sapiens) (Q00532 whole entry): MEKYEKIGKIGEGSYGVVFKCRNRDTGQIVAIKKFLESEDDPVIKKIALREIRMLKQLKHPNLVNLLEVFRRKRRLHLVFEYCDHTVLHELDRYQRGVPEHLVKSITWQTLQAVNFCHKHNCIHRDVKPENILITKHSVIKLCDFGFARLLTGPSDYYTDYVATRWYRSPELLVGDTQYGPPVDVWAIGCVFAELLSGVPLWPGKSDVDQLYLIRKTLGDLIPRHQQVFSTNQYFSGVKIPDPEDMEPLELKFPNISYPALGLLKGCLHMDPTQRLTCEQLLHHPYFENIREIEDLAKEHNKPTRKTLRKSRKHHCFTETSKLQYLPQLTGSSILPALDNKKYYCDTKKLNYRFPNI
Chain of Serine/threonine-protein kinase pim-2 (Homo sapiens) (Q9P1W9 whole entry, looked up): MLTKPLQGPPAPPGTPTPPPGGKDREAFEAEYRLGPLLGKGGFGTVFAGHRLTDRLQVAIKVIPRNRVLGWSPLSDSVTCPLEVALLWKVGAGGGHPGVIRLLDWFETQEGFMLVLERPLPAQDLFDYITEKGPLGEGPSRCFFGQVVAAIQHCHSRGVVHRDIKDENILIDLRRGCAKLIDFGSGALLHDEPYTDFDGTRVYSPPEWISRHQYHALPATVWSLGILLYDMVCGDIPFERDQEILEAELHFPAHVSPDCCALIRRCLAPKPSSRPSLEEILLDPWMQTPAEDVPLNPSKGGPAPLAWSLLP
Chain of Phosphatidylinositol 4,5-bisphosphate 3-kinase catalytic subunit gamma isoform (Homo sapiens) (P48736 whole entry, looked up, canonical isoform): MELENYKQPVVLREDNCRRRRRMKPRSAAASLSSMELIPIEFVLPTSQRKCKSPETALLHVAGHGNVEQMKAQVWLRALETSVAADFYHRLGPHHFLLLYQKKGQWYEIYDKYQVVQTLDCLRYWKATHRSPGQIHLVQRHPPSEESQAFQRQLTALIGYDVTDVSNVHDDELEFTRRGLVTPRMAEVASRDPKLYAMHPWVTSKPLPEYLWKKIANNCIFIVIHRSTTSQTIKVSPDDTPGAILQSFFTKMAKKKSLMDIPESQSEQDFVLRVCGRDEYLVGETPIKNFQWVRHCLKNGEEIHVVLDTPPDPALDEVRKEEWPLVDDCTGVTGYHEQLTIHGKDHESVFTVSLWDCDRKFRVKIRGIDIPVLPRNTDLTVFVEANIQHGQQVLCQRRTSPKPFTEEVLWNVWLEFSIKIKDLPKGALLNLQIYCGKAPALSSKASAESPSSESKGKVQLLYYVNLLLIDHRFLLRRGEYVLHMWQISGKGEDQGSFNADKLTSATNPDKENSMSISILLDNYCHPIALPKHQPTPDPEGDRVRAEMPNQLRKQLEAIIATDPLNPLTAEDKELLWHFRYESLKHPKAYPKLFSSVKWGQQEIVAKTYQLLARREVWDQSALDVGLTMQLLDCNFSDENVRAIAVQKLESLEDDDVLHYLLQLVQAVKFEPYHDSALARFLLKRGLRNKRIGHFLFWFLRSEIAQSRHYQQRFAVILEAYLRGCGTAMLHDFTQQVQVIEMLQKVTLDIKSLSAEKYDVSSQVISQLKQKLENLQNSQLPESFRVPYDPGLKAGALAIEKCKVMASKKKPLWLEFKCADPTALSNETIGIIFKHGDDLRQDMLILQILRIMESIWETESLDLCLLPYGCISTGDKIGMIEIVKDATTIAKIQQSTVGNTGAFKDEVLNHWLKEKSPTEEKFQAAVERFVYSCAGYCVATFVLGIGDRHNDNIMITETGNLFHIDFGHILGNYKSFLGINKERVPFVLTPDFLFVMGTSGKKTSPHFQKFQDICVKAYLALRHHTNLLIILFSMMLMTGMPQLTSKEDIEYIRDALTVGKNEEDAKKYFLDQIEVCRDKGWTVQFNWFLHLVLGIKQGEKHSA
Chain of Mitogen-activated protein kinase kinase kinase 20 (Homo sapiens) (Q9NYL2 2-800 limits assumed): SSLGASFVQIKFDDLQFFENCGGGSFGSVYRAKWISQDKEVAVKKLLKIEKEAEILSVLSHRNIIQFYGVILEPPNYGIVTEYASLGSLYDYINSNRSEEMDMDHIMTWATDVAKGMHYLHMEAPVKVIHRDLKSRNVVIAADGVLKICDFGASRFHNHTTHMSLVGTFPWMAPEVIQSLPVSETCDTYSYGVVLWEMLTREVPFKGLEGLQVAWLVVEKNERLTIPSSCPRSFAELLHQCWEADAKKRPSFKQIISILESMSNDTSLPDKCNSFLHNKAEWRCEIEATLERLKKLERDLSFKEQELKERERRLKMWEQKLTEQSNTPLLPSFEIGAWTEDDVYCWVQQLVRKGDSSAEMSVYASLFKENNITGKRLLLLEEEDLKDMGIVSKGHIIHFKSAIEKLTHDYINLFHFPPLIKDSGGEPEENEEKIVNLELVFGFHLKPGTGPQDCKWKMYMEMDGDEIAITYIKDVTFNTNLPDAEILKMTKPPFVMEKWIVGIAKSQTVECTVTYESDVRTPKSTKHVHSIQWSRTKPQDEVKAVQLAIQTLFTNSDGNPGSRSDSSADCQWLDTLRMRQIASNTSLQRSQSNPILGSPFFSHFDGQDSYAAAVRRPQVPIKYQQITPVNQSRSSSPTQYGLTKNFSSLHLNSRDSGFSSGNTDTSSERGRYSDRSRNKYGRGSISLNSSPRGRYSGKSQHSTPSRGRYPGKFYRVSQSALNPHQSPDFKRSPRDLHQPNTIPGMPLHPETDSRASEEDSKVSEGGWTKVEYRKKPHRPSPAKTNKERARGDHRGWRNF

SMILES	Activity [1] [%]	Activity [2] [%]	Activity [3] [%]	Activity [4] [%]	Activity [5] [%]	Activity [6] [%]	Activity [7] [%]	Activity [8] [%]	Activity [9] [%]	Activity [10] [%]	Activity [11] [%]
COc1cc2nc(C)nc(N[C@H](C)c3cccc(-c4cn[nH]c4)c3)c2cc1OC	73	88	63	95	89	90	97	88	100	86	100
COc1cc2ncnc(N[C@H](C)c3cccc4ccccc34)c2cc1OC	89	96	80	100	89	100	83	98	93	83	53
